For one test, the system named is Sindbis. Nature of the test: microbe, parasite or virus in culture. Format: cell-based. To be noted: read-out: logs of marker virus inactivated.
Another test addresses T1, Factor VIII (Homo sapiens, UniProt P00451).
T1 sequence (P00451 20-1332 limits assumed): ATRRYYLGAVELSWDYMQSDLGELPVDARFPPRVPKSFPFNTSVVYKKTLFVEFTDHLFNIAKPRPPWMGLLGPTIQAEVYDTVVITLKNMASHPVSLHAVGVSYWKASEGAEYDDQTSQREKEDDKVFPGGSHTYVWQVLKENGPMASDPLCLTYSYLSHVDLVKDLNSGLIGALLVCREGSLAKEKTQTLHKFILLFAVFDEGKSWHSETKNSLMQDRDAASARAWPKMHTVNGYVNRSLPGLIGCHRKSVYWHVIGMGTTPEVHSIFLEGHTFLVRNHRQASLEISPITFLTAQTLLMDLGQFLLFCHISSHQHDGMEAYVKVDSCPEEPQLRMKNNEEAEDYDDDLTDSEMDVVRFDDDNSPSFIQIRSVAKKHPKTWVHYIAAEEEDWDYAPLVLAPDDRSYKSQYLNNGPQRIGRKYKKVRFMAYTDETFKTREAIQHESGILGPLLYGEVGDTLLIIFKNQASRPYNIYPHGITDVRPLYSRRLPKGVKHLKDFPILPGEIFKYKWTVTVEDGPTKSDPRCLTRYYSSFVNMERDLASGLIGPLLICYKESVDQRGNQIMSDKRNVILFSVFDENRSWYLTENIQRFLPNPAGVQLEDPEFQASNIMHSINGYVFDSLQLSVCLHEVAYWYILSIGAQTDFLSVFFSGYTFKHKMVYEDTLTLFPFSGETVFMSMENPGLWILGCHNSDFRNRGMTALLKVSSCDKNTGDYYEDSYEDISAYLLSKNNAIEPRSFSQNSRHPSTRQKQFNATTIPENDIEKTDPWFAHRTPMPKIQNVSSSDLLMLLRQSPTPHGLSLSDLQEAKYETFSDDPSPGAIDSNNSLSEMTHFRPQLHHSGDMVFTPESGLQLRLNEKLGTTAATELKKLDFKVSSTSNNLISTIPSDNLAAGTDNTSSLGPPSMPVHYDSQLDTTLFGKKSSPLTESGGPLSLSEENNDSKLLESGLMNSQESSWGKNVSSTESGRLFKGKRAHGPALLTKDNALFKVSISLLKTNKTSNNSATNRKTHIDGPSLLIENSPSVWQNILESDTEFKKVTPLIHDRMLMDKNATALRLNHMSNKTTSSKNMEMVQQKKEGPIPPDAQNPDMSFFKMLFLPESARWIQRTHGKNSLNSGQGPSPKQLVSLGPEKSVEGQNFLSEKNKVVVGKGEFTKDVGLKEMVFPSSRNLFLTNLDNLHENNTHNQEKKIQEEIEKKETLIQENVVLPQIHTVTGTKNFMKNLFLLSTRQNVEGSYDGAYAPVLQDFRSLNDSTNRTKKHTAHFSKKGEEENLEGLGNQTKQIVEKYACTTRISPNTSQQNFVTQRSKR
T1 sequence (P00451 1668-2351 limits assumed): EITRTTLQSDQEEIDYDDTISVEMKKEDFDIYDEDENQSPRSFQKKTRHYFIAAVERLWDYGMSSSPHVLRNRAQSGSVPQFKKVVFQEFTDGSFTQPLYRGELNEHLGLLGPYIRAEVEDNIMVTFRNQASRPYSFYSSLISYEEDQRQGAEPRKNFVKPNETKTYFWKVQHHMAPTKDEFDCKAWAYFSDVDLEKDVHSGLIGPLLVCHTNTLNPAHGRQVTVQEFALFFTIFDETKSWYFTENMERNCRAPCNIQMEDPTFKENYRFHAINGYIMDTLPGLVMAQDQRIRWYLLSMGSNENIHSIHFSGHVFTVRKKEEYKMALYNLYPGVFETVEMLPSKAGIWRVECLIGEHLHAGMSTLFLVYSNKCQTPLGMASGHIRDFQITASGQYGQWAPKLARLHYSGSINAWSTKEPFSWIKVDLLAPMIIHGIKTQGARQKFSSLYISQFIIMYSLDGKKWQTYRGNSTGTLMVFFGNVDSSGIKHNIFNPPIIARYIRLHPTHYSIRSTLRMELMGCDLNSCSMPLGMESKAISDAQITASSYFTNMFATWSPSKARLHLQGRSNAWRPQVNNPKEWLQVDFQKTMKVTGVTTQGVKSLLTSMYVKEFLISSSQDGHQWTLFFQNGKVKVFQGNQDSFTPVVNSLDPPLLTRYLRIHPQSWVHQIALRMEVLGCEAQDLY
Nature of the test: Factor VIII C activity, one-stage activated partial thromboplastin time assay (AHF product after photosensitizer and light).

The test system of the next test is Herpes Simplex virus. Nature of the test: Photodynamic virus inactivation, plaque assay of virus infectivity. The conditions noted are these: AHF products; chlorpromazine 1 X 10^-4M; light for less than ten minutes; read-out: logs of marker virus inactivated. In kind it is cell-based.
In test [1] the test system is Vesicular stomatitis virus. Nature of the test: microbe, parasite or virus in culture. In kind it is cell-based. The conditions noted are these: read-out: logs of marker virus inactivated.
For test [2], the system named is LAV reverse transcriptase. Nature of the test: Photodynamic inactivation of LAV seeded into AHF, reverse transcriptase assay. Format: biochemical. To be noted: AHF seeded with LAV, Chlorpromazine 1 X 10^-4M, unfiltered Mercury Arc Lamp. The protocol: The following data supports photodynamic inactivation of LAV using indirect methods. AHF was seeded with LAV virus. In the first set of data, Protoporphyrin was added at a concentration of 5 X 10^-6M. The mixture was exposed to light ffrom a 65 watt Super Diazo Blue lamp at a distance of 10 cm. Albumin was added to the samples after inactivation to inhibit any inactivation from extraneous light. The product was lyophilized and subjected to a reverse transcriptase assay.
In the second set of data, LAV was seeded into an AHF composition. Chlorpromazine (1 X 10^-4M) was added as a photosensitize and the mixture was exposed to unfiltered light from an 85 watt high pressure mercury arc lamp at a distance of 10 cm. The product was lyophilized and analyzed for reverse transcriptase activity. Results are reported in counts per minute.

[3] abbreviates: Chlorpromazine 1x10^-4M, Mercury Arc Lamp, Sensitizer added-10 min light.
Setting [4] is: Chlorpromazine 1x10^-5M, Mercury Arc Lamp, Sensitizer added-10 min light.
Setting [5] is: Chlorpromazine 1x10^-5M, Mercury Arc Lamp, Sensitizer added-20 min light.

Source text for Factor VIII: The mixture was then exposed to light of a defined wavelength for a specified period of time.
Several light sources were used. A U.V. light source derived from a high pressure mercury vapor quartz lamp (85 watts) was employed. This source provided a wide band of light in the 390 to 410 nm range. A filter was used to remove the radiation below 350 nm in wave length. Alternatively a super diazo blue fluorescent lamp was used which has a peak emission near the absorption peak of the porphyrins employed.
Factor VIII C and Factor IX activity was determined by the one-stage activated partial thromboplastin time assay using Kaolin as an activator and human Factor VIII or Factor IX deficient plasma as a substrate. […] It involves the addition of the test sample to Factor VIII or Factor IX deficient plasma and measuring the degree of correction of the clotting time. This is then compared to a curve constructed using various dilutions of a lyophilized concentrate (reference) of known potency. […] Both sample and refernce are prediluted in Factor VIII deficient substrate plasma to an approximate activity of 1 U/mL. From the percentage of the reference, the potency can be estimated.

Take `CN(C)CCCN1c2ccccc2Sc2ccc(Cl)cc21` [Chlorpromazine, 10-(3-dimethyl-aminopropyl)-2-chlorphenothiazine]: the log reduction at 100 µM (with Sindbis; in the test with Herpes Simplex virus; in test [1]) was above 5 each time. The “% Change (Ref: Bulk), Percent change in Factor VIII coagulant activity” value at Factor VIII (setting [3]) was -29%; on Factor VIII (setting [4]), -23%; at Factor VIII (setting [5]), -43%. For the same molecule, the Units/ml at Factor VIII (setting [3]) stood at 20.0 Units/ml; at Factor VIII (Chlorpromazine 1x10^-4M, Sensitizer added-no light), 27.3 Units/ml; at Factor VIII (setting [4]), 24.8 Units/ml; on Factor VIII (setting [5]) it was 18.2 Units/ml; on Factor VIII (Chlorpromazine 1x10^-5M, Sensitizer added-no light) it was 30.1 Units/ml. Besides, the “C.P.M. (reverse transcriptase activity)” value in test [2] (exposure 0 minutes) is reported as 36,192 C.P.M; in test [2] (exposure 5 minutes), 27,100 C.P.M; in test [2] (exposure 10 minutes), 6,814 C.P.M; in test [2] (exposure 20 minutes) it was 4,742 C.P.M.
